Laboratory results as given in patent publication US6713527B2, “Anaesthetic bone cement” (Queen's University at Kingston, priority 1997, dated 2004).
Where a name gives a salt, the structure may show the parent alone.

Key:
[1] = Elution/release of anaesthetic from DePuy bone cement discs (Example 2); format: physicochemical; settings: for anaesthetic released over 72 hours, percentage of amount incorporated / anaesthetic released after 72 h, percentage of amount incorporated: discs in 0.2% saline, 37° C.; for effect of particle size on release profile: crystals 75 to 150 um, 150 to 250 um, >250 um, 72 hours
Description: Crystalline lidocaine base from three manufacturers (Sigma, Spectrum, and Wyckoff) was used in these studies. It was observed that the relative proportions of crystals of different size varied substantially among the three brands. Thus, an initial study compared the effect of crystal size on elution and release characteristics using Spectrum lidocaine base. Crystals were sorted using a series of molecular sieves into three groups (small, 75 to 150 um; medium, 150 to 250 um; and large, >250 um) and 2.0 g samples from each group were incorporated into bone cement and tested, as indicated below.
All studies adhered to the following procedure: Forty grams of bone cement (DePuy CMW3 unless otherwise specified) were mixed with 2.0, 0.5, 0.05, or 0.005 g of liquid or crystalline anaesthetic (lidocaine: Sigma, Spectrum, Wyckoff; prilocaine: Colour Your Enzyme, Queen's University, Kingston, Ontario, Canada). The polymerization initiated mixtures were formed into discs 50 mm×1 mm and allowed to cure. The cured discs were then placed in a solution (100 ml) containing 0.2% saline, and kept at 37° C. in a shaking water bath. 1 ml aliquots were taken at 0, 1, 2, 3, 4, 6, 24, 48 and 72 hours and to each was added 1 μg/ml bupivacaine as an internal standard. 50 μl aliquots were subjected to HPLC using a Beckman reverse phase column having a mobile phase of 40 mM ammonium phosphate:acetonitrile (60:40) and a flow rate of 1 ml/min, followed by electrochemical detection, to determine the amount of anaesthetic in each sample.
The percentage of anaesthetic released was calculated from the mass of the bone cement/anaesthetic mixture: anaesthetic (e.g., 0.05 g)+bone cement powder (40 g)+bone cement liquid (17.9 g)=57.95 g. The mean mass of bone cement discs in an individual experiment was, for example, 3.75 g, which corresponds to 15.45 discs per mixture. For elution of, for example, 1000 ug after 72 hours, 1000 ug×15.45 discs=0.015 g anaesthetic released. Since 0.05 g anaesthetic was used, 30.9% was released.

[2] = Elution of lidocaine from bone cement discs (Example 1); format: physicochemical; settings: Zimmer or DePuy cement, 0.2% saline, 37° C.
Method: Forty grams of bone cement powder from each of three manufacturers: Howmedica (Simplex), Zimmer (Osteobond) and DePuy (CMW3), were mixed with 0.5, 1.0 and 2.0 g of gas-sterilized crystalline lidocaine base (Xylocaine, Astra Pharmaceuticals). The polymerization initiated mixtures were formed into discs 50 mm×1 mm and allowed to harden. The hardened discs were then placed in a stirred solution (100 ml) containing 0.2% saline at 37° C. 100 μl aliquots were taken at 1, 2, 3, 4, 6, 24, 48 and 72 hours and subjected to HPLC with electrochemical detection analysis to determine the lidocaine level in each sample.

[3] = eluted from Howmedica bone cement; knee surgery of Example 3
[4] = lidocaine added to CMW3 vs CMW3
Method: Lidocaine (Xylocaine, Astra Pharmaceuticals) was combined with DePuy CMW3 bone cement as described in Example 1, and mechanical properties including dough time, setting time, exotherm, compressive strength, flexural strength, flexural modulus, and impact strength were analyzed.

[5] = 0.05 g anaesthetic per 40 g DePuy CMW3 bone cement, HCl
[6] = 0.5, 1.0, 2.0 g per 40 g Howmedica
[7] = 2.0 g anaesthetic per 40 g DePuy CMW Endurance bone cement

In the case of `CCN(CC)CC(=O)Nc1c(C)cccc1C` [crystalline lidocaine HCl, lidocaine HCl], the “anaesthetic released over 72 hours, percentage of amount incorporated” value [1, 5] is reported as “about 25%”, the “anaesthetic released over 72 hours, percentage of amount incorporated” value ([1]; 0.05 g anaesthetic per 40 g DePuy CMW3 bone cement, listed as lidocaine HCl, HCl) is reported as “about 25%” and the “anaesthetic released over 72 hours, percentage of amount incorporated” value ([1]; 0.5 g anaesthetic per 40 g DePuy CMW3 bone cement) is reported as “about 33%”. For the same compound, the “anaesthetic released after 72 h, percentage of amount incorporated” value ([1]; 0.5 g anaesthetic per 40 g DePuy CMW Endurance bone cement) was 23% and the “effect of particle size on release profile” value ([1]; DePuy CMW3, HCl) was “Smaller particles eluted faster”.

For `CCN(CC)CC(=O)Nc1c(C)cccc1C` [crystalline lidocaine base, lidocaine], the “amount eluted in relation to amount in the mixture” value [2, 6] was “proportional to the amount of lidocaine in the mixture”, the “period of maximum rate of elution” value [2, 6] was “first 24 hours” and the “time of peak dose in elution curve” value [2, 6] was roughly 6 h. For the same compound, the “period of sustained release” value ([2]; test period, Howmedica) was 72 h, the “anaesthetic released over 72 hours, percentage of amount incorporated” value ([1]; 2.0 g anaesthetic per 40 g DePuy CMW3 bone cement) was “about 1%” and the “anaesthetic released after 72 h, percentage of amount incorporated” value [1, 7] was “about 0.3%”. For the same compound, the “anaesthetic released over the 72 hour period, percentage of amount incorporated” value ([1]; 2.0 g sieved crystals, all size groups (75 to 150 um, 150 to 250 um, >250 um), DePuy CMW3) was “about 1%”, the “effect of particle size on release profile” value ([1]; DePuy CMW3) was “no effect of particle size” and the “persistence of analgesic effect” value [3] was “at least 24 hours”. For the same compound, the “time from application of bone cement to analgesic effect” value [3] was no more than 6 h, the “effect on compressive strength, flexural strength or flexural modulus” value [4] was “little effect” and the “improvement of impact strength” value [4] was “about 10%”. The “increase of cement setting time” value [4] was “about 40%” and the “increase of doughing time, factor” value [4] was 3.

With `CCN(CC)CC(=O)Nc1c(C)cccc1C` [liquid lidocaine HCl, lidocaine HCl] the “anaesthetic released over 72 hours, percentage of amount incorporated” value [1, 5] was 0.3%.

With `CCCNC(C)C(=O)Nc1ccccc1C` (centres unmarked) [crystalline prilocaine base, prilocaine] the “anaesthetic released after 72 h, percentage of amount incorporated” value [1, 7] was “about 0.4%”.

For `CCCNC(C)C(=O)Nc1ccccc1C` (centres unmarked) [liquid prilocaine base, prilocaine], the “anaesthetic released after 72 h, percentage of amount incorporated” value [1, 7] was “about 0.3%” and the “initial release of anaesthetic” value ([1]; 2.0 g in DePuy CMW3, compared with crystalline prilocaine base and both forms of lidocaine base (FIG. 4)) was “greatest”.
